Patent publication US7595327B2, “Beta-sulfonamide hydroxamic acid inhibitors of tace/matrix metalloproteinase” (priority 2005, dated 2009)
Where a name gives a salt, the structure may show the parent alone.

Key:
[1] = target: T1, TACE (catalytic domain of the recombinant TACE protein) (Homo sapiens, UniProt P78536); experiment: TACE FRET assay using TACE Cat; type: biochemical; settings: FRET, pro-TNF-α substrate peptide; read-out: TACE IC50
T1 construct: The catalytic domain of the recombinant TACE protein was expressed and purified; made in house
T1 sequence (P78536 223-474 limits assumed): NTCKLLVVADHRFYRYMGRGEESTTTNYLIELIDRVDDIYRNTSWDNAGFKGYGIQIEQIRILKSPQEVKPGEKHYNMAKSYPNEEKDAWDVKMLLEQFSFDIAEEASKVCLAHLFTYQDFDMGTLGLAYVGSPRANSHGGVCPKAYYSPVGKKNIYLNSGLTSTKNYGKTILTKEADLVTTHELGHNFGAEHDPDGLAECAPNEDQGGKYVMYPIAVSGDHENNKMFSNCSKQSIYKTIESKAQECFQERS
Protocol: The procedure is essentially as described in Jin, G. et al., Analytical Biochemistry (2002) 302, 269-275, incorporated by reference herein in its entirety. […] K is the IC50. Generally, n and B are floated, noting that n (hill slope) should be close to 1 and B (background offset) to 0.
Pro-TNF-α substrate peptide Abz-[…]-Dpa (AnaSpec, San Jose, Calif., WARC-1) was prepared as a 2 mM stock solution in the TACE assay buffer (50 mM Tris-HCI, pH 7.4, 25 mM NaCl, 4% Glycerol, 0.005% Brij 35). The catalytic domain of the recombinant TACE protein was expressed and purified. The TACE protein (1 ug/ml) was pretreated with the inhibitors at various concentrations for 10 min at room temperature. The reaction was initiated by the addition of the substrate peptide. The increase in fluorescence was monitored at an Excitation of 320 nm and an Emission of 420 nm over a period of 10 min. The initial rate (slope) of the reaction was determined using a fluorescence plate reader (Molecular Devices, Spectra Max Gemini XS).

[2] = target: T2, recombinant human MMP-2 (Homo sapiens, UniProt P08253); experiment: In-vitro fluorescence assay of MMP-2 activity; type: biochemical
T2 sequence (P08253 110-660): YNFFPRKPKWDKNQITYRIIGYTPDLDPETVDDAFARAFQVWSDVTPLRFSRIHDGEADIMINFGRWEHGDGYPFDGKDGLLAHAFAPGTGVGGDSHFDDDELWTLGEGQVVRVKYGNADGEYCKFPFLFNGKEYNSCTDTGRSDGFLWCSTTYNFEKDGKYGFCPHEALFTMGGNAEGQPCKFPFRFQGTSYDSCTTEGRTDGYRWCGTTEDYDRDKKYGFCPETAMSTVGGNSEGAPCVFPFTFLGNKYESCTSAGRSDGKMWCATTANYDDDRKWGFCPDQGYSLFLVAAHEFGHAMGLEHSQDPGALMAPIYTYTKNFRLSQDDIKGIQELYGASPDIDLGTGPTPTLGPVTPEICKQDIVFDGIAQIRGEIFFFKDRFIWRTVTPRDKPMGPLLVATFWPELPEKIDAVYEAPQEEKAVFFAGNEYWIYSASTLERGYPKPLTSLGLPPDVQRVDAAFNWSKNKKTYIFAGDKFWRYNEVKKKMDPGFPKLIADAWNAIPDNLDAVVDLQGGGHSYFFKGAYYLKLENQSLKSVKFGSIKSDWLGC

[3] = target: MMP-13 (Homo sapiens, UniProt P45452); experiment: In-vitro fluorescence assay of MMP-13 activity; type: biochemical
Protocol: See Knight, C. […] […].
The method was essentially the same as for the determination of MMP-1 activity, described above, except that the final concentration of purified MMP in the assay was 0.5 nM, prepared by diluting with the assay buffer.

[4] = tested on: TNF-α secretion in Raw 264.7 cells; experiment: Cell-based assay for inhibition of TNF-α secretion in Raw cells; settings: Mus musculus, RAW264.7, LPS 100 ng/ml, 4 hr
Protocol: The basic measurement of the assay is the percentage of inhibition of TNF-α secretion and the IC50 determination by a fitting with the model-39 of LSW data analysis tool. […] Cells are split twice a week by scraping and 1 to 10 or 20 dilutions. For testing compounds, cells are cultured to confluence and are seeded the day before the experiment in 24 well culture dishes at 0.5 to 1 million/ml well. On the next morning, the medium from the overnight culture is replaced with the fresh growth medium. The compounds are added at various concentration at the 0.2% of final DMSO concentrations (10 μl of a 20% DMSO solution containing testing compounds is added to each well). The cells are pre-incubated with compounds for 1 hr. LPS (Sigma, L2262) is added to cells at a final concentration of 100 ng/ml (10 μl of a […] LPS solution freshly diluted from a 1 mg/ml LPS stock solution in PBS is added to each well) and cells are further incubated for 4 hr at 37° C. 1 ml of the supernatant was collected, cells are spun down and the supernatants are frozen at −80° C. until use. The TNF-α and other proinflammatory cytokines were detected by an ELISA assay according to the manufacturer's instructions (Biosource International, Inc., Camarillo, Calif. (For IL-1b measurement in Raw cells, one round of freeze and thaw of the cells was required).

[5] = tested on: LPS-induced TNF-α secretion in human whole blood; experiment: Human whole blood assay for LPS-induced TNF-α secretion; type: cell-based; settings: Homo sapiens, LPS 100 ng/ml, read-out: TNF Secretion HWB IC50
Protocol: procedure is essentially as described in Newton, R. C., et al., (2001) Ann Rheum […]32, incorporated by reference herein in its entirety. The basic measurement of the assay is the percentage of inhibition of TNF-α secretion and the IC50 determination by a […] model-39 of LSW data analysis tool. 350 μl of fresh human blood drawn from healthy volunteers were pre-incubated with compounds for one hour at the various concentrations at 37° C. with turning generally, the final DMSO concentrations should be kept below 0.2%. At the end of cubation, LPS (Sigma, L2262) was added to the blood at 100 ng/ml and the samples were further incubated for 4 hours or overnight at 37° C. with constant rotation. At the end of the incubation period, 650 μl of serum-free medium was added to the blood samples and the samples were centrifuged at 1500 rpm for 15 minutes. 500 μl of supernate was collected and frozen at -80° C. The TNF-α and other proinflammatory cytokines were detected by ELISA assay according to the manufacturer's instruction (Biosource International, Inc., Camarillo, Calif.).

Cc1cc(COc2ccc(S(=O)(=O)N[C@@H]3CCN(C=O)C[C@]3(C)C(=O)NO)cc2)c2ccccc2n1 [Example 51, (3S,4R)-1-formyl-N-hydroxy-3-methyl-4-[({4-[(2-methylquinolin-4-yl)methoxy]phenyl}sulfonyl)amino]piperidine-3-carboxamide]
IC50 [1]: < 0.6 nM | IC50 [2]: > 16.7 µM | IC50 [3]: > 10 µM | IC50 [4]: > 1000 nM | IC50 [5]: 30 µM

Cc1cc(COc2ccc(S(=O)(=O)N(C)[C@@H]3CC=CC[C@@H]3C(=O)NO)cc2)c2ccccc2n1 (relative stereo) [Example 15, cis-N-Hydroxy-6-[methyl({4-[(2-methylquinolin-4-yl)methoxy]phenyl}sulfonyl)amino]cyclohex-3-ene-1-carboxamide]
IC50 [1]: 2.6 nM | IC50 [2]: > 16.7 µM | IC50 [3]: > 16.7 µM | IC50 [4]: > 1000 nM | IC50 [5]: > 50 µM

Cc1cc(COc2ccc(S(=O)(=O)N[C@@H]3CCN(C=O)C[C@]3(O)C(=O)NO)cc2)c2ccccc2n1 [Example 46, 4-({4-[({(3R,4R)-1-Formyl-3-hydroxy-3-[(hydroxyamino)carbonyl]piperidin-4-yl}amino)sulfonyl]phenoxy}methyl)-2-methylquinolinium trifluoroacetic acid salt]
IC50 [1]: 1.4 nM | IC50 [2]: > 16.7 µM | IC50 [3]: > 16.7 µM | IC50 [4]: 160 nM | IC50 [5]: 2.9 µM

CNC(=O)N1CC[C@@H](NS(=O)(=O)c2ccc(OCc3cc(C)nc4ccccc34)cc2)[C@@](C)(C(=O)NO)C1 [Example 50]
IC50 [1]: 3.7 nM | IC50 [2]: > 16.7 µM | IC50 [3]: > 16.7 µM | IC50 [4]: > 1000 nM | IC50 [5]: 22 µM

Cc1cc(COc2ccc(S(=O)(=O)N[C@@H]3CCN(C(=O)OC(C)(C)C)CC3C(=O)NO)cc2)c2ccccc2n1 (mixture of isomers) [Example 28, tert-Butyl (3S,4R)-3-[(hydroxyamino)carbonyl]-4-[({4-[(2-methylquinolin-4-yl)methoxy]phenyl}sulfonyl)amino]piperidine-1-carboxylate]
IC50 [1]: 0.5 nM | IC50 [2]: > 16.7 µM | IC50 [3]: 14.4 µM | IC50 [4]: 460 nM | IC50 [5]: 0.8 µM

Cc1cc(COc2ccc(S(=O)(=O)N[C@@H]3CCOCC3C(=O)NO)cc2)c2ccccc2n1 (stereo in doubt) [Example 24, (3S,4R)-4-[4-(2-Methyl-quinolin-4-ylmethoxy)-benzenesulfonylamino]-tetrahydro-pyran-3-carboxylic acid hydroxyamide]
IC50 [1]: 0.8 nM | IC50 [2]: > 16.7 µM | IC50 [3]: > 16.7 µM | IC50 [4]: 17 nM | IC50 [5]: 0.23 µM

Cc1cc(COc2ccc(S(=O)(=O)N[C@@H]3CCNC[C@]3(O)C(=O)NO)cc2)c2ccccc2n1 [Example 59, (3R,4R)-N,3-dihydroxy-4-[({4-[(2-methylquinolin-4-yl)methoxy]phenyl}sulfonyl)amino]piperidine-3-carboxamide]
IC50 [1]: 109 nM | IC50 [2]: > 10 µM | IC50 [3]: > 10 µM | IC50 [4]: > 1000 nM | IC50 [5]: 49 µM

Cc1cc(COc2ccc(S(=O)(=O)N[C@@H]3CN(C(=O)OC(C)(C)C)C[C@@H]3C(=O)NO)cc2)c2ccccc2n1 (relative stereo) [Example 21, tert-Butyl cis-3-[(hydroxyamino)carbonyl]-4-[({4-[(2-methylquinolin-4-yl)methoxy]phenyl}sulfonyl)amino]pyrrolidine-1-carboxylate]
IC50 [1]: < 0.6 nM | IC50 [2]: 8.8 µM | IC50 [3]: 4.89 µM | IC50 [4]: 38 nM | IC50 [5]: 1.3 µM

Cc1cc(COc2ccc(S(=O)(=O)N[C@@H]3CCC[C@@H]3C(=O)NO)cc2)c2ccccc2n1 (relative stereo) [Example 11, cis-N-Hydroxy-2-[({4-[(2-methylquinolin-4-yl)methoxy]phenyl}sulfonyl)amino]cyclopentanecarboxamide]
IC50 [1]: 0.6 nM | IC50 [2]: > 16.7 µM | IC50 [3]: > 16.7 µM | IC50 [4]: 11 nM | IC50 [5]: 0.74 µM

Cc1cc(COc2ccc(S(=O)(=O)NC3CCN(CCO)CC3C(=O)NO)cc2)c2ccccc2n1 (mixture of isomers) [Example 32, 1-(2-Hydroxy-ethyl)-4-[4-(2-methyl-quinolin-4-ylmethoxy)-benzenesulfonylamino]-piperidine-3-carboxylic acid hydroxyamide]
IC50 [1]: 3.2 nM | IC50 [2]: > 10 µM | IC50 [3]: > 10 µM | IC50 [4]: 180 nM | IC50 [5]: 1.9 µM

Cc1cc(COc2ccc(S(=O)(=O)N[C@@H]3CCN(S(=O)(=O)C(C)C)C[C@]3(C)C(=O)NO)cc2)c2ccccc2n1 [Example 52, (3S,4R)-N-hydroxy-1-(isopropylsulfonyl)-3-methyl-4-[({4-[(2-methylquinolin-4-yl)methoxy]phenyl}sulfonyl)amino]piperidine-3-carboxamide]
IC50 [1]: 2.4 nM | IC50 [2]: > 16.7 µM | IC50 [3]: > 10 µM | IC50 [4]: 762 nM | IC50 [5]: 37 µM

CC[C@]1(C(=O)NO)CCC[C@H]1NS(=O)(=O)c1ccc(OCc2cc(C)nc3ccccc23)cc1 [Example 56, (1S,2R)-N-hydroxy-1-ethyl-2-[({4-[(2-methylquinolin-4-yl)methoxy]phenyl}sulfonyl)amino]cyclopentanecarboxamide]
IC50 [1]: 2.3 nM | IC50 [2]: > 10 µM | IC50 [3]: > 10 µM | IC50 [4]: > 1000 nM | IC50 [5]: 48 µM

Cc1cc(COc2ccc(S(=O)(=O)N(C)[C@@H]3CCOCC3C(=O)NO)cc2)c2ccccc2n1 (stereo in doubt) [Example 25, (3S,4R)-4-{Methyl-[4-(2-methyl-quinolin-4-ylmethoxy)-benzenesulfonyl]-amino}-tetrahydro-pyran-3-carboxylic acid hydroxyamide]
IC50 [1]: 7.9 nM | IC50 [2]: > 16.7 µM | IC50 [3]: > 16.7 µM | IC50 [4]: > 1000 nM | IC50 [5]: > 50 µM

Cc1cc(COc2ccc(S(=O)(=O)N(C)[C@H]3COC[C@H]3C(=O)NO)cc2)c2ccccc2n1 (stereo in doubt) [Example 27, (3S,4R)-4-{Methyl-[4-(2-methyl-quinolin-4-ylmethoxy)-benzenesulfonyl]-amino}-tetrahydro-furan-3-carboxylic acid hydroxyamide]
IC50 [1]: 1.4 nM | IC50 [2]: > 16.7 µM | IC50 [3]: > 16.7 µM | IC50 [4]: 929 nM | IC50 [5]: 41 µM
